Test results as given in US20260217692A1 (Ascentage Pharma (Suzhou) Co., Ltd., priority 2023, published 2026).
Where a name gives a salt, the structure may show the parent alone.

Columns and labels:
Format in all cases: physicochemical
[1] = Polymorph screening test, suspension method (crystal form by XRPD after stirring in solvent); conditions: for Crystal form (XRPD): free base screening, 3 days
Method: (or 50° C.) for 3 days in the dark and centrifuged to remove the supernatant; the resulting precipitate was dried under vacuum (25° C., −0.1 MPa); and the resulting solid was collected and subjected to the XRPD test. The results are as follows:
(or 50° C./80° C.) for 3 days in the dark and centrifuged to remove the supernatant; and the resulting precipitate was dried under vacuum (25° C., −0.1 MPa).
(or 50° C.) for 3 days in the dark and centrifuged to remove the supernatant; and the resulting precipitate was dried under vacuum (25° C., −0.1 MPa).

[2] = Stability of crystal forms under stability test conditions (appearance, XRPD, HPLC); conditions: for Total impurities: HPLC
Method: The samples were placed under the stability conditions shown in the following table, sampling was performed at the corresponding time points, and the samples were subjected to appearance and XRPD tests. […] The stability results obtained are recorded in the following table. […] The samples were placed under the stability test conditions shown in the following table, sampling was performed at different time points, and the samples were subjected to the XRPD test. […] The samples were placed in an open state under the stability test conditions of 40° C./75% RH and 90% RH; and the samples were placed in a closed state at 60° C. in a light box (the test samples in the dark were placed in the same manner as the illumination test samples, and the treatment was performed in the dark). Sampling was performed at different time points, and the samples were subjected to the XRPD test. […] The samples were placed under the stability conditions shown in the following table, sampling was performed at the corresponding time points, and the samples were subjected to appearance and XRPD tests. […] The stability results obtained are recorded in the following table.

[3] = Dynamic vapor sorption (DVS) hygroscopicity test; conditions: 25° C. and 80% RH
Source text: In the present disclosure, the DVS test parameters are set as follows: [table]

[4] = 0 d, listed as Phosphate crystal form E

Structure (SMILES): Cc1cc(Nc2ncc(Cl)c(Nc3ccccc3S(=O)(=O)C(C)C)n2)c(OC(C)C)cc1C1=CCN(C2CCOCC2)CC1 [one equivalent of citrate crystal form B]
- stability of crystal form in solvents, citrate polymorph screening test ([1]; in solvents): relatively good stability
- crystal form when stirred in solvent ([1]; methanol, ethanol, acetonitrile, acetone, ethyl acetate, dichloromethane, tetrahydrofuran, n-heptane, dioxane, or mixed solvent of methanol, acetonitrile, or acetone with water, 40° C.): remained stable
- Total impurities ([2]; 0 d): 0.18%
- Total impurities ([2]; 40° C./75% RH, 1 M): 0.19%
- Total impurities ([2]; 40° C./75% RH, 10 d): 0.19%
- Total impurities ([2]; 60° C., 1 M): 0.22%
- Total impurities ([2]; 60° C., 10 d): 0.19%
- Total impurities ([2]; 90% RH, 1 M): 0.19%
- Total impurities ([2]; 90% RH, 10 d): 0.18%
- Total impurities ([2]; Illumination, 5 d): 0.48%
- Appearance ([2]; Illumination, 5 d and 10 d): Color deepening
- Total impurities ([2]; Illumination, 10 d): 0.55%

Structure (SMILES): Cc1cc(Nc2ncc(Cl)c(Nc3ccccc3S(=O)(=O)C(C)C)n2)c(OC(C)C)cc1C1=CCN(C2CCOCC2)CC1 [listing 1 of 3 here]
- Total impurities [2, 4]: 1.24%
- Crystal form (XRPD) [2, 4]: Significant change
- Total impurities ([2]; 40° C./75% RH, 1 M, listed as Phosphate crystal form E): 1.69%
- Total impurities ([2]; 40° C./75% RH, 10 d, listed as Phosphate crystal form E): 1.79%
- Crystal form (XRPD) ([2]; 40° C./75% RH, 10 d and 1 M, listed as Phosphate crystal form E): Significant change
- Total impurities ([2]; 60° C., 1 M, listed as Phosphate crystal form E): 2.74%
- Total impurities ([2]; 60° C., 10 d, listed as Phosphate crystal form E): 3.26%
- Crystal form (XRPD) ([2]; 60° C., 10 d and 1 M, listed as Phosphate crystal form E): Significant change
- Total impurities ([2]; 90% RH, 1 M, listed as Phosphate crystal form E): 3.03%
- Total impurities ([2]; 90% RH, 10 d, listed as Phosphate crystal form E): 2.13%
- Crystal form (XRPD) ([2]; 90% RH, 10 d and 1 M, listed as Phosphate crystal form E): Significant change
- Total impurities ([2]; Illumination, 5 d, listed as Phosphate crystal form E): 3.02%
- Crystal form (XRPD) ([2]; Illumination, 5 d and 10 d, listed as Phosphate crystal form E): Significant change
- Total impurities ([2]; Illumination, 10 d, listed as Phosphate crystal form E): 5.00%

Structure (SMILES): Cc1cc(Nc2ncc(Cl)c(Nc3ccccc3S(=O)(=O)C(C)C)n2)c(OC(C)C)cc1C1=CCN(C2CCOCC2)CC1 [listing 2 of 3 here]
- Crystal form (XRPD) ([1]; suspension in 1,4-Dioxane, 25° C.): Crystal form G
- Crystal form (XRPD) ([1]; suspension in 1,4-Dioxane, 50° C.): Crystal form D
- Crystal form (XRPD) ([1]; suspension in 2-MeTHF, 25° C.): Crystal form D
- Crystal form (XRPD) ([1]; suspension in 2-MeTHF, 50° C.): Crystal form D
- Crystal form (XRPD) ([1]; suspension in ACN/water (1/1, v/v), 25° C.): Crystal form D
- Crystal form (XRPD) ([1]; suspension in ACN/water (1/1, v/v), 50° C.): Crystal form D
- Crystal form (XRPD) ([1]; suspension in Acetone, 25° C.): Crystal form E
- Crystal form (XRPD) ([1]; suspension in Acetone, 50° C.): Crystal form E
- Crystal form (XRPD) ([1]; suspension in Acetone/water (1:1, v/v), 25° C.): Crystal form D
- Crystal form (XRPD) ([1]; suspension in Acetone/water (1:1, v/v), 50° C.): Crystal form D
- Crystal form (XRPD) ([1]; suspension in Acetonitrile, 25° C.): Crystal form D
- Crystal form (XRPD) ([1]; suspension in Acetonitrile, 50° C.): Crystal form D
- Crystal form (XRPD) ([1]; suspension in Cyclohexane, 25° C.): Crystal form D
- Crystal form (XRPD) ([1]; suspension in Cyclohexane, 50° C.): Crystal form D
- Crystal form (XRPD) ([1]; suspension in Dichloromethane, 25° C.): No solid sample was obtained
- Crystal form (XRPD) ([1]; suspension in Dichloromethane, 50° C.): No solid sample was obtained
- Crystal form (XRPD) ([1]; suspension in Ethanol, 25° C.): Crystal form B
- Crystal form (XRPD) ([1]; suspension in Ethanol, 50° C.): Crystal form D
- Crystal form (XRPD) ([1]; suspension in Ethyl acetate, 25° C.): Crystal form D
- Crystal form (XRPD) ([1]; suspension in Ethyl acetate, 50° C.): Crystal form D
- Crystal form (XRPD) ([1]; suspension in Isopropanol, 25° C.): Crystal form C
- Crystal form (XRPD) ([1]; suspension in Isopropanol, 50° C.): Crystal form D
- Crystal form (XRPD) ([1]; suspension in Isopropyl acetate, 25° C.): Crystal form D
- Crystal form (XRPD) ([1]; suspension in Isopropyl acetate, 50° C.): Crystal form D
- Crystal form (XRPD) ([1]; suspension in MA, 25° C.): Crystal form D
- Crystal form (XRPD) ([1]; suspension in MA, 50° C.): Crystal form D
- Crystal form (XRPD) ([1]; suspension in MEK, 25° C.): Crystal form D
- Crystal form (XRPD) ([1]; suspension in MEK, 50° C.): Crystal form D
- Crystal form (XRPD) ([1]; suspension in MIBK, 25° C.): Crystal form D
- Crystal form (XRPD) ([1]; suspension in MIBK, 50° C.): Crystal form D
- Crystal form (XRPD) ([1]; suspension in MeOH/water (1:1, v/v), 25° C.): Crystal form D
- Crystal form (XRPD) ([1]; suspension in MeOH/water (1:1, v/v), 50° C.): Crystal form D
- Crystal form (XRPD) ([1]; suspension in Methanol, 25° C.): Crystal form A
- Crystal form (XRPD) ([1]; suspension in Methanol, 50° C.): Crystal form I
- Crystal form (XRPD) ([1]; suspension in Methyl tert-butyl ether, 25° C.): Crystal form D
- Crystal form (XRPD) ([1]; suspension in Methyl tert-butyl ether, 50° C.): Crystal form C
- Crystal form (XRPD) ([1]; suspension in Tetrahydrofuran, 25° C.): Crystal form F
- Crystal form (XRPD) ([1]; suspension in Tetrahydrofuran, 50° C.): No solid sample was obtained
- Crystal form (XRPD) ([1]; suspension in Toluene, 25° C.): Crystal form D
- Crystal form (XRPD) ([1]; suspension in Toluene, 50° C.): No solid sample was obtained
- Crystal form (XRPD) ([1]; suspension in Water, 25° C.): Crystal form H
- Crystal form (XRPD) ([1]; suspension in Water, 50° C.): Crystal form J
- Crystal form (XRPD) ([1]; suspension in n-Heptane, 25° C.): Crystal forms C + D
- Crystal form (XRPD) ([1]; suspension in n-Heptane, 50° C.): Crystal forms C + D
- Crystal form (XRPD) ([1]; suspension in n-Hexane, 25° C.): Crystal form D
- Crystal form (XRPD) ([1]; suspension in n-Hexane, 50° C.): Crystal form D

Structure (SMILES): Cc1cc(Nc2ncc(Cl)c(Nc3ccccc3S(=O)(=O)C(C)C)n2)c(OC(C)C)cc1C1=CCN(C2CCOCC2)CC1 [one equivalent of tartrate crystal form B]
- stability of crystal form in solvent, suspension method ([1]; acetone, tetrahydrofuran, n-heptane, or dioxane): relatively good stability
- crystal form when stirred in solvent ([1]; acetone, tetrahydrofuran, n-heptane, or dioxane at 40° C.): remained stable

Structure (SMILES): Cc1cc(Nc2ncc(Cl)c(Nc3ccccc3S(=O)(=O)C(C)C)n2)c(OC(C)C)cc1C1=CCN(C2CCOCC2)CC1 [listing 3 of 3 here]
- Total impurities ([2]; 0 d, listed as Tartrate crystal form C): 0.28%
- Total impurities ([2]; 40° C./75% RH, 1 M, listed as Tartrate crystal form C): 0.38%
- Total impurities ([2]; 40° C./75% RH, 10 d, listed as Tartrate crystal form C): 0.37%
- Total impurities ([2]; 60° C., 1 M, listed as Tartrate crystal form C): 0.47%
- Total impurities ([2]; 60° C., 10 d, listed as Tartrate crystal form C): 0.41%
- Total impurities ([2]; 90% RH, 1 M, listed as Tartrate crystal form C): 0.59%
- Total impurities ([2]; 90% RH, 10 d, listed as Tartrate crystal form C): 0.48%
- Total impurities ([2]; Illumination, 5 d, listed as Tartrate crystal form C): 1.01%
- Appearance ([2]; Illumination, 5 d and 10 d): Color deepening
- Total impurities ([2]; Illumination, 10 d, listed as Tartrate crystal form C): 1.04%

Structure (SMILES): Cc1cc(Nc2ncc(Cl)c(Nc3ccccc3S(=O)(=O)C(C)C)n2)c(OC(C)C)cc1C1=CCN(C2CCOCC2)CC1 [crystal form C]
- hygroscopic weight gain (DVS curve) [3]: 0.31±0.005%
